Reference: patent publication US6403586B1, “Pyridazine derivatives and drugs containing the same as the active ingredient” (Kowa Co., Ltd., priority 1998, dated 2002)

Assays:
[1] = tested on: Interleukin-1β (IL-1β) Production in HL-60 cells; assay: Inhibitory activity against interleukin-1β production (Test 1); type: cell-based; details: Homo sapiens, 72 h, lipopolysaccharide 10 μg/ml, culturing for 3 days, compared with control without test sample
Protocol: (Inhibitory activity against interleukin-1β production)
HL-60 cells were cultured for 4 days until confluence on RPMI 1640 medium with 10% fetal bovine serum (FBS) added thereto. The medium was centrifuged. The supernatant was discarded, and the cells were then suspended at 1×10^6 cells/me on RPMI 1640 medium with 3% FBS, and lipopolysaccharide was added to give a final concentration of 10 μg/ml. The culture was inoculated at 1 ml/well to a 24-well plate. A test compound was added at 1 μl/well, followed by culturing for 3 days. Three days later, the amount of interleukin-1β in each […] was determined by a comparison in yield with a control to which no test sample was added.

| Compound | melting point | IC50 [1] |
| --- | --- | --- |
| CNC(=O)c1cc(-c2ccc(OC)cc2)nn(CC(C)C)c1=O [Example 43, 2-Isobutyl-6-(4-methoxyphenyl)-4-methylcarbamoyl-2H-pyridazin-3-one] | 124.9 to 125.2 °C | 0.357 µM |
| CCOC(=O)Nc1cc(-c2ccc(OC)cc2)nn(CC=Cc2ccc(Cl)cc2)c1=O [Example 87, 2-(4-Chlorocinnamyl)-4-ethoxycarbonylamino-6-(4-methoxyphenyl)-2H-pyridazin-3-one] | 171.2 to 172.1 °C | 0.05 µM |
| COc1ccc(-c2cc(N)c(=O)n(CC=Cc3ccc(Cl)cc3)n2)cc1 [Example 111, 4-amino-2-(4-chlorocinnamyl)-6-(4-methoxyphenyl)-2H-pyridazin-3-one] | 142.7 to 143.2 °C | 0.53 µM |
| COc1ccc(-c2cc(=O)[nH]nc2-c2ccc(OC)cc2)cc1 [Comp. Comp'd 4, reference compound] | – | 31.6 µM |
| CNC(=O)c1cc(-c2ccc(OC)c(F)c2)nn(CC2CC2)c1=O [Example 63, 2-Cyclopropylmethyl-6-(3-fluoro-4-methoxyphenyl)-4-methylcarbamoyl-2H-pyridazin-3-one] | – | 0.31 µM |
| CNC(=O)c1cc(-c2ccc(OC)cc2)nn(CC2CC2)c1=O [Example 61, 2-Cyclopropylmethyl-6-(4-methoxyphenyl)-4-methylcarbamoyl-2H-pyridazin-3-one] | 136.6 to 137.5 °C | 0.038 µM |
| CCNC(=O)c1cc(-c2ccc(OC)cc2)nn(CC2CC2)c1=O [Example 66, 2-Cyclopropylmethyl-4-ethylcarbamoyl-6-(4-methoxyphenyl)-2H-pyridazin-3-one] | 136.3 to 136.9 °C | 0.11 µM |
| CNC(=O)C1CC(c2ccc(OC)cc2)=NN(CC(C)C)C1=O (centres unmarked) [Example 128, 4,5-dihydro-2-isobutyl-6-(4-methoxyphenyl)-4-methylcarbamoyl-2H-pyridazin-3-one] | 124.2 to 125 °C | 0.4 µM |
| COc1ccc(-c2cc(NC=O)c(=O)n(CC=Cc3ccc(Cl)cc3)n2)cc1 [Example 112, 2-(4-chlorocinnamyl)-4-formylamino-6-(4-methoxyphenyl)-2H-pyridazin-3-one] | 213 to 213.8 °C | 0.387 µM |
| COc1ccc(-c2cc(=O)n(CCO)nc2-c2ccc(OC)cc2)cc1 [Comp. Comp'd 2, reference compound] | – | 46 µM |
